Measured values as given in patent US11339419B2, “Scavenger protein(s) for improved preservation of analyte detection sensor(s) and method(s) of use thereof” (Siemens Healthcare Diagnostics Inc., priority 2017, dated 2022).
Where “and” joins values, the source holds several entries; their conditions need not be identical. Identical values can stand only once.

What was measured:
Format in all cases: biochemical
[1] = test system: sarcosine oxidase (BBI Solutions); assay: BBI Solutions Sarcosine Oxidase Enzyme Absorbance with BSA and MIT; details: for Sarcosine Oxidase Enzyme Absorbance, MEAN of 1-5 / Sarcosine Oxidase Enzyme Absorbance, solutions 1-5: Day 14, 100 ppm MIT, 37° C.
Procedure: Tables 1-4 depict aqueous solutions comprising varying concentrations of BSA (at concentrations of 0 mg/mL, 5 mg/mL, 25 mg/mL, and 50 mg/mL), varying concentrations of MIT (at concentrations of 50 parts per million and 100 parts per million) or Proclin™ 300 (at concentrations of 0.7% and 1.4%) biocides over a particular time period (measurements were taken at days 0, 4, and 14 after exposure of the enzyme(s) to the aqueous solutions) and the associated enzyme absorbance measurements for sarcosine oxidase (commercially offered for sale by BBI Solutions and Toyobo). Absorbance measurements of the sarcosine oxidase enzyme(s) were taken via spectrophotometer for each aqueous solution (represented as columns 1-5 in Tables 1-4—column 6 is a blank), the absorbance being directly proportional to the enzyme activity being measured-which for Tables 1-4 is sarcosine oxidase enzyme activity. Accordingly, the higher the absorbance measurement, the higher the enzyme activity of sarcosine oxidase. Columns 7-11 represent five replicate readings in which the aqueous solution only contains BSA (i.e., there is no biocide(s) present in the aqueous solution). In addition, the mean values, standard deviations, and coefficients of variation are also presented for the enzyme activity/absorbance of each aqueous solution. All measurements were taken at 37° C.
As depicted below in Table 1, sarcosine oxidase (commercially offered for sale by BBI Solutions) enzyme activity is measured against various concentrations of MIT (biocide) and BSA (scavenger protein) over a period of 14 days (with absorbance measurements taken at 0, 4, and 14 days) for five different aqueous solutions (represented as columns 1-5—column 6 is a blank).

[2] = test system: sarcosine oxidase (BBI Solutions); assay: BBI Solutions Sarcosine Oxidase Enzyme Absorbance with BSA and Proclin 300
Text: (§1) Absorbance measurements of the sarcosine oxidase enzyme(s) were taken via spectrophotometer for each aqueous solution (represented as columns 1-5 in Tables 1-4—column 6 is a blank), the absorbance being directly proportional to the enzyme activity being measured-which for Tables 1-4 is sarcosine oxidase enzyme activity. Accordingly, the higher the absorbance measurement, the higher the enzyme activity of sarcosine oxidase. […] In addition, the mean values, standard deviations, and coefficients of variation are also presented for the enzyme activity/absorbance of each aqueous solution. All measurements were taken at 37° C.

[3] = test system: creatininase (Toyobo); assay: Toyobo Creatininase Enzyme Absorbance with BSA and Proclin 300
Text: as §1, with “creatininase” for “sarcosine oxidase”, “5-8—column” for “1-4—column”, “5-8” for “1-4”, “creatininase.” for “sarcosine oxidase.”, “all” for “also”

[4] = Day 0, BSA 5 mg/mL only, no Proclin 300, line of 0.7% Proclin 300
[5] = Day 0, BSA 5 mg/mL only, no Proclin 300, line of 1.4% Proclin 300
[6] = Day 0, BSA 25 mg/mL only, no Proclin 300, line of 0.7% Proclin 300
[7] = Day 0, BSA 25 mg/mL only, no Proclin 300, line of 1.4% Proclin 300
[8] = Day 0, BSA 50 mg/mL only, no Proclin 300, line of 0.7% Proclin 300
[9] = Day 0, BSA 50 mg/mL only, no Proclin 300, line of 1.4% Proclin 300
[10] = Day 4, BSA 5 mg/mL only, no Proclin 300, line of 0.7% Proclin 300
[11] = Day 4, BSA 5 mg/mL only, no Proclin 300, line of 1.4% Proclin 300
[12] = Day 4, BSA 25 mg/mL only, no Proclin 300, line of 0.7% Proclin 300
[13] = Day 4, BSA 25 mg/mL only, no Proclin 300, line of 1.4% Proclin 300
[14] = Day 4, BSA 50 mg/mL only, no Proclin 300, line of 0.7% Proclin 300
[15] = Day 4, BSA 50 mg/mL only, no Proclin 300, line of 1.4% Proclin 300
[16] = Day 14, BSA 5 mg/mL only, no Proclin 300, line of 0.7% Proclin 300
[17] = Day 14, BSA 5 mg/mL only, no Proclin 300, line of 1.4% Proclin 300
[18] = Day 14, BSA 25 mg/mL only, no Proclin 300, line of 0.7% Proclin 300
[19] = Day 14, BSA 25 mg/mL only, no Proclin 300, line of 1.4% Proclin 300
[20] = Day 14, BSA 50 mg/mL only, no Proclin 300, line of 0.7% Proclin 300
[21] = Day 14, BSA 50 mg/mL only, no Proclin 300, line of 1.4% Proclin 300
[22] = days 4 and 14, only BSA, no Proclin 300
[23] = Day 0, BSA 5 mg/mL only, no Proclin 300, listed as of 0.7% Proclin 300
[24] = Day 0, BSA 5 mg/mL only, no Proclin 300, listed as of 1.4% Proclin 300
[25] = Day 0, BSA 25 mg/mL only, no Proclin 300, listed as of 0.7% Proclin 300
[26] = Day 0, BSA 25 mg/mL only, no Proclin 300, listed as of 1.4% Proclin 300
[27] = Day 0, BSA 50 mg/mL only, no Proclin 300, listed as of 0.7% Proclin 300
[28] = Day 0, BSA 50 mg/mL only, no Proclin 300, listed as of 1.4% Proclin 300

## bovine serum albumin [BSA]
[1]; 5 mg/mL BSA
  Sarcosine Oxidase Enzyme Absorbance, MEAN of 1-5: 1.43
  Sarcosine Oxidase Enzyme Absorbance, solutions 1-5: 1.479 and 1.506 and 1.389 and 1.39 and 1.577
[1]; 25 mg/mL BSA
  Sarcosine Oxidase Enzyme Absorbance, MEAN of 1-5: 1.40
  Sarcosine Oxidase Enzyme Absorbance, solutions 1-5: 1.422 and 1.404 and 1.428 and 1.458 and 1.477
[1]; 50 mg/mL BSA
  Sarcosine Oxidase Enzyme Absorbance, MEAN of 1-5: 1.43
  Sarcosine Oxidase Enzyme Absorbance, solutions 1-5: 1.442 and 1.477 and 1.456 and 1.492 and 1.478
[1]; days 4 and 14, 5, 25 and 50 mg/mL BSA, with MIT
  absorbance of the sarcosine oxidase enzyme compared to samples containing 0 mg/mL of BSA: increased absorbance
[1]; days 4 and 14, only BSA, no MIT
  sarcosine oxidase absorbance, solutions 7-11: increased (or at least maintained)
[2]; [4]
  Absorbance, solutions 7-11: 1.447 and 1.677 and 1.453 and 1.748
  MEAN absorbance, solutions 7-11: 1.51
[2]; [5]
  Absorbance, solutions 7-11: 1.464 and 1.437 and 1.453 and 1.458 and 1.444
  MEAN absorbance, solutions 7-11: 1.40
[2]; [6]
  Absorbance, solutions 7-11: 1.429 and 1.441 and 1.415 and 1.398 and 1.406
  MEAN absorbance, solutions 7-11: 1.37
[2]; [7]
  Absorbance, solutions 7-11: 1.39 and 1.396 and 1.375 and 1.392 and 1.376
  MEAN absorbance, solutions 7-11: 1.34
[2]; [8]
  Absorbance, solutions 7-11: 1.376 and 1.375 and 1.399 and 1.416 and 1.421
  MEAN absorbance, solutions 7-11: 1.35
[2]; [9]
  Absorbance, solutions 7-11: 1.402 and 1.394 and 1.401 and 1.397 and 1.396
  MEAN absorbance, solutions 7-11: 1.35
[2]; [10]
  Absorbance, solutions 7-11: 1.505 and 1.507 and 1.518 and 1.472 and 1.484
  MEAN absorbance, solutions 7-11: 1.45
[2]; [11]
  Absorbance, solutions 7-11: 1.446 and 1.471 and 1.449 and 1.46 and 1.484
  MEAN absorbance, solutions 7-11: 1.42
[2]; [12]
  Absorbance, solutions 7-11: 1.45 and 1.451 and 1.465 and 1.418 and 1.415
  MEAN absorbance, solutions 7-11: 1.40
[2]; [13]
  Absorbance, solutions 7-11: 1.416 and 1.421 and 1.436 and 1.431 and 1.426
  MEAN absorbance, solutions 7-11: 1.38
[2]; [14]
  Absorbance, solutions 7-11: 1.416 and 1.425 and 1.435 and 1.402 and 1.421
  MEAN absorbance, solutions 7-11: 1.38
[2]; [15]
  Absorbance, solutions 7-11: 1.38 and 1.397 and 1.399 and 1.403
  MEAN absorbance, solutions 7-11: 1.35
[2]; [16]
  Absorbance, solutions 7-11: 1.53 and 1.542 and 1.526 and 1.538 and 1.535
  MEAN absorbance, solutions 7-11: 1.49
[2]; [17]
  Absorbance, solutions 7-11: 1.527 and 1.53 and 1.526 and 1.566
  MEAN absorbance, solutions 7-11: 1.49
[2]; [18]
  Absorbance, solutions 7-11: 1.498 and 1.527 and 1.533 and 1.503 and 1.505
  MEAN absorbance, solutions 7-11: 1.47
[2]; [19]
  Absorbance, solutions 7-11: 1.499 and 1.497 and 1.533 and 1.539 and 1.525
  MEAN absorbance, solutions 7-11: 1.47
[2]; [20]
  Absorbance, solutions 7-11: 1.493 and 1.499 and 1.505 and 1.513 and 1.541
  MEAN absorbance, solutions 7-11: 1.46
[2]; [21]
  Absorbance, solutions 7-11: 1.467 and 1.491 and 1.482 and 1.534 and 1.529
  MEAN absorbance, solutions 7-11: 1.46
[2]; days 4 and 14, 5, 25 and 50 mg/mL BSA, with Proclin 300
  absorbance of the sarcosine oxidase enzyme compared to samples containing 0 mg/mL of BSA: increased absorbance
[2]; [22]
  sarcosine oxidase absorbance, solutions 7-11: increased (or at least maintained)
[3]; [23]
  Absorbance, solutions 7-11: 0.749
  MEAN absorbance, solutions 7-11: 0.61
[3]; [24]
  Absorbance, solutions 7-11: 0.569 and 0.573 and 0.57 and 0.582
  MEAN absorbance, solutions 7-11: 0.47
[3]; [25]
  Absorbance, solutions 7-11: 0.529
  MEAN absorbance, solutions 7-11: 0.40
[3]; [26]
  Absorbance, solutions 7-11: 0.508 and 0.507 and 0.518 and 0.514
  MEAN absorbance, solutions 7-11: 0.41
[3]; [27]
  Absorbance, solutions 7-11: 0.973
  MEAN absorbance, solutions 7-11: 1.39
[3]; [28]
  Absorbance, solutions 7-11: 0.488 and 0.464 and 0.506
  MEAN absorbance, solutions 7-11: 0.39
[3]; Day 4, BSA 5 mg/mL only, no Proclin 300, listed as of 0.7% Proclin 300
  MEAN absorbance, solutions 7-11: 0.87
[3]; Day 4, BSA 5 mg/mL only, no Proclin 300, listed as of 1.4% Proclin 300
  MEAN absorbance, solutions 7-11: 0.78
[3]; Day 4, BSA 25 mg/mL only, no Proclin 300, listed as of 0.7% Proclin 300
  MEAN absorbance, solutions 7-11: 0.68
[3]; Day 4, BSA 25 mg/mL only, no Proclin 300, listed as of 1.4% Proclin 300
  MEAN absorbance, solutions 7-11: 0.64
[3]; Day 4, BSA 50 mg/mL only, no Proclin 300, listed as of 0.7% Proclin 300
  MEAN absorbance, solutions 7-11: 0.56
[3]; Day 4, BSA 50 mg/mL only, no Proclin 300, listed as of 1.4% Proclin 300
  MEAN absorbance, solutions 7-11: 0.54
[3]; Day 14, BSA 5 mg/mL only, no Proclin 300, listed as of 0.7% Proclin 300
  MEAN absorbance, solutions 7-11: 0.92
[3]; Day 14, BSA 5 mg/mL only, no Proclin 300, listed as of 1.4% Proclin 300
  MEAN absorbance, solutions 7-11: 0.90
[3]; Day 14, BSA 25 mg/mL only, no Proclin 300, listed as of 0.7% Proclin 300
  MEAN absorbance, solutions 7-11: 0.71
[3]; Day 14, BSA 25 mg/mL only, no Proclin 300, listed as of 1.4% Proclin 300
  MEAN absorbance, solutions 7-11: 0.71
[3]; Day 14, BSA 50 mg/mL only, no Proclin 300, listed as of 0.7% Proclin 300
  MEAN absorbance, solutions 7-11: 0.58
[3]; Day 14, BSA 50 mg/mL only, no Proclin 300, listed as of 1.4% Proclin 300
  MEAN absorbance, solutions 7-11: 0.57
[3]; day 4, Proclin 300 0.7%, 5, 25 and 50 mg/mL BSA
  absorbance of the creatininase enzyme compared to samples containing 0 mg/mL of BSA: increased (albeit a mild increase)
[3]; [22]
  creatininase absorbance, solutions 7-11: increased (or at least maintained)
